The experiment deals with Sarcoplasmic/endoplasmic reticulum calcium ATPase 1 (Oryctolagus cuniculus, UniProt P04191). Kind of experiment: Inhibition of rabbit SERCA1a preincubated for 10 mins followed by addition of ATP and measured after 10 mins by colorimetric method.
Chain of Sarcoplasmic/endoplasmic reticulum calcium ATPase 1 (P04191 whole entry): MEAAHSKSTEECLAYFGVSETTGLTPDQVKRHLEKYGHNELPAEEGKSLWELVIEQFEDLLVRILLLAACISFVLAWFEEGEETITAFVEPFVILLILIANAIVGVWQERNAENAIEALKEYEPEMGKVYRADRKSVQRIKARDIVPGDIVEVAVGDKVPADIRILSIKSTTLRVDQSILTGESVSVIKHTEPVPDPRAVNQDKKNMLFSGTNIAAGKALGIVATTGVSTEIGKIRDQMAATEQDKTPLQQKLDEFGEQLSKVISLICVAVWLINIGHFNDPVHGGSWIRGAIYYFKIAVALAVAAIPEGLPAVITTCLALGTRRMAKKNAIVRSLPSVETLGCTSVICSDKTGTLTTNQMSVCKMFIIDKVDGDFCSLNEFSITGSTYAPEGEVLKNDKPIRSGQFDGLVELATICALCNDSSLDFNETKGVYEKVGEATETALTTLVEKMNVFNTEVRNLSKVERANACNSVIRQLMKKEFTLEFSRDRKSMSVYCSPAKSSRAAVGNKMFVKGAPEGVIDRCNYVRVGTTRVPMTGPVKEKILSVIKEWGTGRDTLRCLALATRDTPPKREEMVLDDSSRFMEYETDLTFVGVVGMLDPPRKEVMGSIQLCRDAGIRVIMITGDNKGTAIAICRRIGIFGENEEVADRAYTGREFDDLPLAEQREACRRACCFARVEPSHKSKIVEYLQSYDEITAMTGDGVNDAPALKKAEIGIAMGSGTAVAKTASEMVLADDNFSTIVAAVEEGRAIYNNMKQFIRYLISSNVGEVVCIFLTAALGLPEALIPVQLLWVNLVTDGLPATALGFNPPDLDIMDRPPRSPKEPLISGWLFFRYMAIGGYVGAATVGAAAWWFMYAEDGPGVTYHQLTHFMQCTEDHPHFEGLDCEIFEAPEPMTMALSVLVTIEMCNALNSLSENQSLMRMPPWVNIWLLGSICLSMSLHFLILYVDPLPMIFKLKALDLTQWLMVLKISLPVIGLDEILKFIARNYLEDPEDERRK

`CC[C@H](C)[C@H]1O[C@]2(CC[C@@H]1C)C[C@@H]1C[C@@H](C/C=C(\C)[C@@H](O[C@H]3C[C@H](OC)[C@@H](O[C@H]4C[C@H](OC)[C@@H](O)[C@H](C)O4)[C@H](C)O3)[C@@H](C)/C=C/C=C3\CO[C@@H]4[C@H](O)C(C)=C[C@@H](C(=O)O1)[C@]34O)O2` [ABAMECTIN]: the IC50 (commonly the concentration that inhibits the measured activity by half) stood at 15 µM.
